This is an account of results in PMC7400108, “Squalamine and Aminosterol Mimics Inhibit the Peptidoglycan Glycosyltransferase Activity of PBP1b” (Antibiotics, 2020).

“And” between values parts separate entries of the source, which are not always exact repeats. Equal values may be shown once. “Also recorded” adds a separate entry of the source. Read-outs that look alike come from different tables or passages of the source.

The target of assay [1] is T1, E. coli PBP1b (Escherichia coli, UniProt P02919).
T1 construct: PBP1bγ(M46-N844) was purified as previously described; made in house
T1 sequence (P02919 46-844): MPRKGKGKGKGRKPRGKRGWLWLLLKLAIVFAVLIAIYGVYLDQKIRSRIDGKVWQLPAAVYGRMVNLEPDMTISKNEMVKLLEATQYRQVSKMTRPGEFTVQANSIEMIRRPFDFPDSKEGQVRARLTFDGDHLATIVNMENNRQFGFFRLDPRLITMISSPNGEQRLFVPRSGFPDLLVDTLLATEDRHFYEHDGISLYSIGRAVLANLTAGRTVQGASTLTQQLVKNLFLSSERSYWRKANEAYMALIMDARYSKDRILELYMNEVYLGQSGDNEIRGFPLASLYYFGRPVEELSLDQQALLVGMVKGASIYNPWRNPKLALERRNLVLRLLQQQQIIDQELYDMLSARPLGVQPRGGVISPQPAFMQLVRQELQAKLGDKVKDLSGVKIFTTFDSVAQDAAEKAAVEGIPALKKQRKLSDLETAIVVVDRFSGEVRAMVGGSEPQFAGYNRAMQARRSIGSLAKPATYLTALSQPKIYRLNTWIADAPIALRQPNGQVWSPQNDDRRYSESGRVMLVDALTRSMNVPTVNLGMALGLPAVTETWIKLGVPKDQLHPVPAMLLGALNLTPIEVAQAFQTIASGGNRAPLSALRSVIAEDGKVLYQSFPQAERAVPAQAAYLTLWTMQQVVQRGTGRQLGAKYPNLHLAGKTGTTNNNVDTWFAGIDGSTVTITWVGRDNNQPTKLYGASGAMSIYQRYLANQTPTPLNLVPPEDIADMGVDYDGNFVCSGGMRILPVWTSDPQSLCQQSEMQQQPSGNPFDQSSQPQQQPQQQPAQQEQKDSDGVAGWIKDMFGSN
Briefly: GTase inhibition assay: residual activity and IC50 of PBP1b (radioactive lipid II endpoint TLC assay, dansyl-lipid II continuous fluorescence assay). The class given is biochemical. The following applies: up to 5 mM (1-5 mM), below CMC.

The target in assay [2] is T1, E. coli PBP1b. Described as above. The class given is biochemical. To be noted: for RA % (0.4 mM), residual GTase activity of PBP1b: compound 0.4 mM (400 µM); for RA % (0.4 mM), residual GTase activity of PBP1b / RA % (0.8 mM), residual GTase activity of PBP1b / remaining activity at 800 µM: compared to nontreated control; for RA % (0.8 mM), residual GTase activity of PBP1b: compound 0.8 mM (800 µM); for remaining activity at 800 µM: read-out: RA % (0.8 mM), residual GTase activity of PBP1b, compound 0.8 mM (800 µM). How it is done:
The continuous fluorescence GTase activity assay of PBP1b was performed using dansyl lipid II as substrate as described.
The end-point assay, based on radiolabeled lipid II ([^14C]lipid II), was performed in 30 µL in the same conditions as the fluorescence assay using 4 µM [^14C]lipid II (0.06 µCi/nmol) instead of the fluorescent substrate and by omitting the muramidase. The reaction was incubated 15 min at 30 °C, stopped by heating at 80 °C for 10min and the products were separated by thin-layer chromatography (TLC) on silica gel plates in 2-propanol–ammonium hydroxide (25%)–H2O (6:3:1; v/v/v).
The GTase inhibition assay was carried out by measuring the residual activity (RA) of E. coli PBP1b in the presence of 400 and 800 μM compounds. All the assays were repeated at least three times. The IC50 values were determined for the active compounds using variable concentrations of inhibitor (0−1000 μM) by fitting the data using GraphPad Prism 6.0 software.

A further assay concerns the target T2, PBP1b (Escherichia coli, UniProt P02919).
T2 construct: PBP1bγ(M46-N844) was purified as previously described; made in house
Briefly: Fluorescence anisotropy competition assay, displacement of NBD-lipid II probe from PBP1b. In kind it is binding. The following applies: NBD-lipid II 0.33 µM, PBP1b ~1 µM, serial dilutions of compound. On the procedure: (§1) FA assay was performed as previously described. Briefly, fixed concentrations of NBD-lipid II (0.33 µM) and PBP1b (~1 µM) in the 25 mM Tris–HCl pH 7.5, NaCl 0.1 M, CHAPS 0.14% w/v, were mixed with serial dilutions of the compounds in 384-well plates. Measurement were performed using an Infinite F Plex (Tecan, Männedorf, Switzerland) microplate reader equipped with polarization filters with excitation and emission wavelengths at 485 and 535 nm respectively. All the experiments were performed in triplicates. For direct binding evaluation of the compounds with the probe, the experiments were performed in the same condition in the absence of the protein. FA values in millianisotropy units (mA) were plotted as a function of compound concentrations in µM as previously described.
In general terms: Fluorescence polarisation rises when a labelled molecule tumbles more slowly, as on binding a larger partner.

Assay [3] is described as follows: Fluorescence anisotropy direct binding of compounds to the probe in the absence of the protein. To be noted: NBD-lipid II 0.33 µM, no protein. How it is done:
as §1

The next assay has as its system E. coli. Details: method as in PMID 31063379. The following applies: cited from earlier work.
The test system of another assay is S. aureus. Further details: method as in PMID 31063379. To be noted: cited from earlier work.
[4] abbreviates: mean of three experiments ± s.d.
[5] abbreviates: variable inhibitor concentrations 0-1000 µM, mean of three experiments ± s.d., read-out: IC50, GTase activity of PBP1b.

T2 sequence (P02919 46-844): as above

Turning to `C[C@H](CCC(=O)NCCC[N+](C)(C)CCCS(=O)(=O)[O-])[C@H]1CCC2C3C(C[C@H](O)[C@@]21C)[C@@]1(C)CC[C@H](O)CC1C[C@H]3O` (stereo partly drawn) [CHAPS], the “Inhibition of PBP1b GTase activity (in words)” value at E. coli PBP1b [1] is listed as “no inhibition”.
As a reminder, the IC50 is the concentration that gives 50% inhibition. As to `CC(C)CCCC(C)C1CCC2C3C(NCCCCN)C=C4CC(O)CCC4(C)C3CCC12C` (stereo not drawn) [Compound 2], on E. coli PBP1b [2] (setting [4]), the “RA % (0.4 mM), residual GTase activity of PBP1b” value came to 1.2 ± 0.3% and the “RA % (0.8 mM), residual GTase activity of PBP1b” value was 0.3 ± 0.1%. Moreover, the IC50 at E. coli PBP1b [2] (setting [5]) amounted to 114 ± 6 µM.
On to `CC(C)CCC[C@@H](C)[C@H]1CCC2C3C(CC[C@@]21C)[C@@]1(C)CC[C@H](O)CC1=C[C@@H]3NCCCNCCCCNCCCN` (stereo partly drawn) [Compound 3], for which, at E. coli PBP1b [2] (setting [4]), the “RA % (0.4 mM), residual GTase activity of PBP1b” value is listed as 16 ± 2% and the remaining activity at 800 µM amounted to 8.5 ± 3.1%. Moreover, the IC50 at E. coli PBP1b [2] (setting [5]) was 220 ± 10 µM.
Consider `CC(C)CCC[C@@H](C)[C@H]1CCC2C3C(CC[C@@]21C)[C@@]1(C)CC[C@H](O)CC1C[C@@H]3NCCCN` (stereo partly drawn) [Compound 4], for which, on E. coli PBP1b [2] (setting [4]), the “RA % (0.4 mM), residual GTase activity of PBP1b” value is listed as 39 ± 2% and the remaining activity at 800 µM was found to be 4 ± 1%. The 50% inhibitory concentration (IC50) at E. coli PBP1b [2] (setting [5]) worked out at 303 ± 15 µM.
Consider `CC(C)CCC[C@@H](C)[C@H]1CCC2C3C[C@@H](NCCCCN)C4C[C@@H](O)CC[C@]4(C)C3CC[C@@]21C` (stereo partly drawn) [Compound 5, 6β-(1,4-diaminobutane)-cholestan-3β-ol], for which, at E. coli PBP1b [2] (setting [4]), the “RA % (0.4 mM), residual GTase activity of PBP1b” value was found to be 16 ± 1.4% and the remaining activity at 800 µM turned out to be 3 ± 1%. For the same compound, the IC50 at E. coli PBP1b [2] (setting [5]) amounted to 221 ± 26 µM.
With `CC(C)CCC[C@@H](C)[C@H]1CCC2C3C[C@@H](NCCCNCCCCNCCCN)C4C[C@@H](O)CC[C@]4(C)C3CC[C@@]21C` (stereo partly drawn) [Compound 6, 6β-(spermine)-cholestan-3β-ol], the “Competition with lipid II for binding to PBP1b (change of FA of the probe)” value (“Competition … (change of FA of the probe)” below) on PBP1b was “able to compete; also recorded: decrease of the FA”. Further, the “Direct interaction between fluorescent lipid II and compound (FA)” value in assay [3] is given as “no significant interaction”. Moreover, the IC50 at E. coli PBP1b [2] amounted to 111 ± 6 µM. On E. coli PBP1b [2] (setting [4]), the “RA % (0.4 mM), residual GTase activity of PBP1b” value is 3.9 ± 0.1% and the remaining activity at 800 µM came to 0.8 ± 0.4%.
Take `CC(C)CCCC(C)C1CCC2C3C(NCCCCN)C=C4CC(O)CCC4(C)C3CCC12C` (stereo not drawn) [Compound 9]: at E. coli PBP1b [2] (setting [4]), the “RA % (0.8 mM), residual GTase activity of PBP1b” value is 98% and 98 ± 1%. Further, the “Inhibition of GTase activity of PBP1b (in words)” value (shortened to “Inhibition … of PBP1b (in words)”) on E. coli PBP1b [2] (concentration not given) is “almost inactive”.
`CC(=O)[C@H]1CC[C@H]2[C@@H]3CCC4=CC(=O)CC[C@]4(C)[C@H]3CC[C@]12C` [Compound 12, progesterone, reference compound]: on E. coli PBP1b [2] (concentration not given), the “Inhibition … of PBP1b (in words)” value was “do not inhibit”. Moreover, on E. coli PBP1b [2] (setting [4]), the remaining activity at 800 µM worked out at 98 ± 1%.
Consider `C[C@H](NCCCCN)[C@H]1CCC2C3CCC4=C[C@@H](NCCCCN)CC[C@]4(C)C3CC[C@@]21C` (stereo partly drawn) [Compound 13], for which the “Inhibition … of PBP1b (in words)” value on E. coli PBP1b [2] (0.8 mM compound, radioactive lipid II, endpoint TLC assay) was “inactive”; at E. coli PBP1b [2] (concentration not given) it was “absence of activity”. Moreover, at E. coli PBP1b [2] (setting [4]), the remaining activity at 800 µM worked out at 100%.
As to `C[C@]12CCC3c4ccc(O)cc4CCC3C1CC[C@@H]2NCCCCN` (stereo partly drawn) [Compound 15, (13S,17S)-17-((4-aminobutyl)amino)-13-methyl-7,8,9,11,12,13,14,15,16,17-decahydro-6H-cyclopenta[a]phenanthren-3-ol], the “Competition … (change of FA of the probe)” value at PBP1b was “no effect; also recorded: does not affect the FA”. The “Direct interaction between fluorescent lipid II and compound (FA)” value in assay [3] is on record as “no significant interaction”. At E. coli PBP1b [2] (concentration not given), the “Inhibition … of PBP1b (in words)” value was “absence of activity”. At E. coli PBP1b [2] (setting [4]), the remaining activity at 800 µM was 105 ± 3%.
Take `CC(C)[C@@H](CC[C@@H](C)[C@H]1CC[C@H]2[C@@H]3[C@H](O)C[C@H]4C[C@@H](NCCCNCCCCN)CC[C@]4(C)[C@H]3CC[C@]12C)OS(=O)(=O)O` [Squalamine (1), Squalamine]: in the assay on E. coli, the MIC is on record as ~ 3 µg/mL. For the same compound, the “Competition … (change of FA of the probe)” value at PBP1b is given as “able to compete; also recorded: decrease of the FA”. For the same compound, in the assay on S. aureus, the MIC is ~ 3 µg/mL. Moreover, the “Direct interaction between fluorescent lipid II and compound (FA)” value in assay [3] is on record as “no significant interaction”. Besides, at E. coli PBP1b [2] (setting [4]), the “RA % (0.4 mM), residual GTase activity of PBP1b” value stood at 6 ± 2% and the remaining activity at 800 µM came out at 1.1 ± 0.6%. At E. coli PBP1b [2] (setting [5]), the IC50 worked out at 291 ± 26 µM.
For “N1,N1’-((3S,7R,10R,13R,17R)-10,13-dimethyl-17-((R)-5-methylhexan-2-yl)-tetradecahydro-1H-cyclopenta[a]phenanthrene-3,7-diyl)bis(pentane-1,5-diamine) [Compound 7]”, on E. coli PBP1b [2] (setting [4]), the “RA % (0.4 mM), residual GTase activity of PBP1b” value is 12.5 ± 4.4% and the “RA % (0.8 mM), residual GTase activity of PBP1b” value is given as 1.5 ± 0.8%. Moreover, at E. coli PBP1b [2] (setting [5]), the IC50 came out at 229 ± 17 µM.
